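Following 48 hours of exposure in 96-well plates, responses at five concentrations were used to interpolate endpoints linearly. Abbreviation: GI50, concentration required for 50% inhibition of growth.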 The source made the active and inactive calls. Rule as the data show it: active = GI50 up to about 1.1 µM and inactive = higher.
Columns and labels:
Assay in all cases: NCI tumour cell line growth inhibition, 48 h
[1] = test system: Hs-578T
[2] = test system: OVCAR-5
[3] = test system: UACC-62
[4] = test system: IGROV-1
[5] = test system: COLO 205
[6] = test system: 786-0
[7] = test system: NCI-H522
[8] = test system: RXF 393
[9] = test system: SK-MEL-5
[10] = test system: HT-29
[11] = test system: HOP-92
[12] = test system: MDA-MB-435
[13] = test system: SN12C
[14] = test system: HCT-15
[15] = test system: MDA-MB-231
[16] = test system: U-251
[17] = test system: MOLT-4
[18] = test system: NCI-H226
[19] = test system: SK-MEL-28
[20] = test system: ACHN

Structure (SMILES) | GI50 [1] | GI50 [2] | GI50 [3] | GI50 [4] | GI50 [5] | GI50 [6] | GI50 [7] | GI50 [8] | GI50 [9] | GI50 [10] | GI50 [11] | GI50 [12] | GI50 [13] | GI50 [14] [µM] | GI50 [15] | GI50 [16] | GI50 [17] | GI50 [18] | GI50 [19] | GI50 [20]
COc1ncc(C=C(C#N)C#N)c(OC)n1 | 60.7 µM (inactive) | 86.7 µM (inactive) | 33.8 µM (inactive) | 59.3 µM (inactive) | 36 µM (inactive) | 19.3 µM (inactive) | 16.7 µM (inactive) | > 100 µM (inactive) | 29.3 µM (inactive) | 40 µM (inactive) | > 100 µM (inactive) | 26 µM (inactive) | 26.8 µM (inactive) | 29.9 | 41.5 µM (inactive) | 43.6 µM (inactive) | 33.3 µM (inactive) | > 100 µM (inactive) | 44.8 µM (inactive) | 48.5 µM (inactive)
CCOC(=O)N1CCN(Cc2cc(=O)n3ccc(C)cc3n2)CC1 | > 100 µM (inactive) | > 100 µM (inactive) | > 100 µM (inactive) | > 100 µM (inactive) | > 100 µM (inactive) | > 100 µM (inactive) | > 100 µM (inactive) | > 100 µM (inactive) | > 100 µM (inactive) | > 100 µM (inactive) | > 100 µM (inactive) | > 100 µM (inactive) | > 100 µM (inactive) | > 100 | > 100 µM (inactive) | > 100 µM (inactive) | > 100 µM (inactive) | > 100 µM (inactive) | > 100 µM (inactive) | > 100 µM (inactive)
O=C1N[C@@H]([C@H]2CC[C@H](Cl)CN2)C(=O)N[C@H]1[C@H]1CC[C@H](Cl)CN1 | 5.06 µM (inactive) | 1.25 µM (inactive) | 0.137 µM (active) | 4.34 µM (inactive) | 1.99 µM (inactive) | 0.1 µM (active) | 0.706 µM (active) | 2.04 µM (inactive) | 1.21 µM (inactive) | 1.83 µM (inactive) | 0.757 µM (active) | 1.06 µM (active) | 0.243 µM (active) | 1.14 | 0.925 µM (active) | 0.406 µM (active) | 0.103 µM (active) | 1.04 µM (active) | 4.32 µM (inactive) | 0.1 µM (active)
O=C1C=C(OCCCCl)C(=O)c2c(O)ccc(O)c21 | 2.42 µM (inactive) | 1.43 µM (inactive) | 0.286 µM (active) | 1.8 µM (inactive) | 0.245 µM (active) | 1.56 µM (inactive) | 2.36 µM (inactive) | 1.69 µM (inactive) | 0.163 µM (active) | 0.581 µM (active) | 1.42 µM (inactive) | 0.206 µM (active) | 0.35 µM (active) | 0.422 | 1.74 µM (inactive) | 2.01 µM (inactive) | 2.11 µM (inactive) | 1.84 µM (inactive) | 0.843 µM (active) | 1.59 µM (inactive)
O=[N+]([O-])C1=Cc2c(O)ccc(O)c2C2c3ccccc3NC12 (stereo not drawn) | 26.1 µM (inactive) | 16.1 µM (inactive) | 6.32 µM (inactive) | 13.5 µM (inactive) | 11.6 µM (inactive) | 12.1 µM (inactive) | 2.45 µM (inactive) | 13.2 µM (inactive) | 12.8 µM (inactive) | 9.02 µM (inactive) | 7.28 µM (inactive) | 14.7 µM (inactive) | 16.7 µM (inactive) | 13 | 13.6 µM (inactive) | 12.9 µM (inactive) | 3.18 µM (inactive) | 61.2 µM (inactive) | 18.5 µM (inactive) | 5.83 µM (inactive)
Cn1c(=O)[nH]c2[nH]c3ccccc3c2c1=O | 65.5 µM (inactive) | > 100 µM (inactive) | > 100 µM (inactive) | > 100 µM (inactive) | > 100 µM (inactive) | > 100 µM (inactive) | > 100 µM (inactive) | > 100 µM (inactive) | > 100 µM (inactive) | > 100 µM (inactive) | > 100 µM (inactive) | > 100 µM (inactive) | > 100 µM (inactive) | > 100 | > 100 µM (inactive) | > 100 µM (inactive) | > 100 µM (inactive) | > 100 µM (inactive) | > 100 µM (inactive) | > 100 µM (inactive)
Cc1cn(C2CC(O)C(COP(=O)(O)OC3CC(n4c[n+]([BH2-]C#N)c5c(=O)[nH]c(N)nc54)OC3CO)O2)c(=O)[nH]c1=O (stereo not drawn) | > 100 µM (inactive) | > 100 µM (inactive) | > 100 µM (inactive) | > 100 µM (inactive) | > 100 µM (inactive) | > 100 µM (inactive) | > 100 µM (inactive) | > 100 µM (inactive) | > 100 µM (inactive) | > 100 µM (inactive) | > 100 µM (inactive) | > 100 µM (inactive) | > 100 µM (inactive) | > 100 | > 100 µM (inactive) | > 100 µM (inactive) | > 100 µM (inactive) | > 100 µM (inactive) | > 100 µM (inactive) | > 100 µM (inactive)
COc1c(C)c(OC)c2c(c1O)[C@@H]1[C@@H]3Cc4c(OC)c(C)c(OC)c(O)c4[C@H](CNC(=O)c4ccc5ccccc5n4)N3[C@@H](C#N)[C@H](C2)N1C | 0.00124 µM (active) | 0.000726 µM (active) | 0.000411 µM (active) | 0.000147 µM (active) | 0.000891 µM (active) | 0.000494 µM (active) | 0.000144 µM (active) | 0.00136 µM (active) | 0.000495 µM (active) | 0.000893 µM (active) | 0.000363 µM (active) | 0.00116 µM (active) | 0.00103 µM (active) | 0.0101 | 0.00159 µM (active) | 0.000632 µM (active) | 0.00016 µM (active) | 0.00143 µM (active) | 0.00251 µM (active) | 0.00199 µM (active)
NNC(=O)c1ccccc1NC(=O)/C(=C/c1ccccc1)NC(=O)c1ccccc1 | 54.1 µM (inactive) | > 100 µM (inactive) | > 100 µM (inactive) | 68.1 µM (inactive) | > 100 µM (inactive) | > 100 µM (inactive) | > 100 µM (inactive) | > 100 µM (inactive) | > 100 µM (inactive) | > 100 µM (inactive) | > 100 µM (inactive) | 54.3 µM (inactive) | > 100 µM (inactive) | 46.7 | 47.9 µM (inactive) | 58.6 µM (inactive) | > 100 µM (inactive) | > 100 µM (inactive) | > 100 µM (inactive) | > 100 µM (inactive)
C/C(=N\NC(=S)N1CCN(c2ccccn2)CC1)c1ncccn1 | 1.87 µM (inactive) | 0.0303 µM (active) | 0.0344 µM (active) | 0.00275 µM (active) | 0.0569 µM (active) | 0.0601 µM (active) | 0.0538 µM (active) | 1.65 µM (inactive) | 0.109 µM (active) | 0.0161 µM (active) | 1.63 µM (inactive) | 2.83 µM (inactive) | 0.566 µM (active) | 0.02 | 0.0214 µM (active) | 0.0369 µM (active) | 0.0116 µM (active) | 0.216 µM (active) | 0.417 µM (active) | 0.0693 µM (active)
O=C(O)c1cccc(/N=N/c2c(S(=O)(=O)O)ccc3c2C(=O)c2ccccc2C3=O)c1O | > 100 µM (inactive) | > 100 µM (inactive) | > 100 µM (inactive) | > 100 µM (inactive) | > 100 µM (inactive) | > 100 µM (inactive) | > 100 µM (inactive) | > 100 µM (inactive) | > 100 µM (inactive) | > 100 µM (inactive) | > 100 µM (inactive) | > 100 µM (inactive) | > 100 µM (inactive) | > 100 | > 100 µM (inactive) | > 100 µM (inactive) | > 100 µM (inactive) | > 100 µM (inactive) | > 100 µM (inactive) | > 100 µM (inactive)
C[C@H](CCC(=O)NCCS(=O)(=O)O)[C@H]1CC[C@H]2[C@@H]3[C@H](O)C[C@@H]4C[C@H](O)CC[C@]4(C)[C@H]3CC[C@]12C | > 100 µM (inactive) | > 100 µM (inactive) | > 100 µM (inactive) | > 100 µM (inactive) | > 100 µM (inactive) | > 100 µM (inactive) | > 100 µM (inactive) | > 100 µM (inactive) | > 100 µM (inactive) | > 100 µM (inactive) | > 100 µM (inactive) | > 100 µM (inactive) | > 100 µM (inactive) | > 100 | > 100 µM (inactive) | > 100 µM (inactive) | > 100 µM (inactive) | > 100 µM (inactive) | > 100 µM (inactive) | > 100 µM (inactive)
N=C(N)c1ccc(/N=N/c2c(O)ccc3cc(O)ccc23)cc1 | > 100 µM (inactive) | > 100 µM (inactive) | > 100 µM (inactive) | > 100 µM (inactive) | > 100 µM (inactive) | > 100 µM (inactive) | > 100 µM (inactive) | > 100 µM (inactive) | > 100 µM (inactive) | > 100 µM (inactive) | > 100 µM (inactive) | > 100 µM (inactive) | – | > 100 | > 100 µM (inactive) | > 100 µM (inactive) | > 100 µM (inactive) | > 100 µM (inactive) | > 100 µM (inactive) | > 100 µM (inactive)
COC(=O)[C@H](Cc1c[nH]c2ccccc12)NC(=O)OCC1OC(n2cc(C)c(=O)[nH]c2=O)CC1N=[N+]=[N-] (stereo partly drawn) | 46.3 µM (inactive) | > 100 µM (inactive) | 61.5 µM (inactive) | > 100 µM (inactive) | > 100 µM (inactive) | > 100 µM (inactive) | > 100 µM (inactive) | > 100 µM (inactive) | 31.8 µM (inactive) | > 100 µM (inactive) | > 100 µM (inactive) | > 100 µM (inactive) | > 100 µM (inactive) | > 100 | > 100 µM (inactive) | > 100 µM (inactive) | 33.6 µM (inactive) | > 100 µM (inactive) | – | > 100 µM (inactive)
